Results: patent publication US8796452B2, “Preparation of lamivudine form I” (Merck Sharp & Dohme Corp., priority 2010, dated 2014)

Assays:
[1] = Equilibration of physical mixtures of Forms I, II and III in water-2-butanone solvent systems (most thermodynamically stable crystal form); format: physicochemical; details: for water content of water-2-butanone mixtures in which Form I is thermodynamically stable: slurry equilibrated by aging
Protocol: Each admixture was then equilibrated by aging at its temperature until the relative amounts of each crystalline form remained constant. At the completion of equilibration, each admixture contained a slurry of a single crystal form, or a slurry in which one crystal form dominates. This crystal form is the most thermodynamically stable at the admixture conditions of temperature and water concentration. Form. […] Similarly, Form I was determined to be thermodynamically stable in water-2-butanone mixtures at about 25° C. when the mixtures contained from 3.5 to 6.0 wt. % water, and at about 50° C. when the mixtures contained from 5.0 to 8.5 wt. % water. Additional data was collected for the boundary between form I and form III; i.e., at 20° C. […] The data are shown in a phase map of temperature versus wt. % water in FIG. 1.

[2] = EtOH-water mixtures at 25° C.; cited from earlier work
[3] = milling, or storage at up to 45° C. at a relative humidity of 25% to 85%; Form I made by the process of WO 2009/069013; cited from earlier work

For Nc1ccn([C@@H]2CS[C@H](CO)O2)c(=O)n1 [Form I], the “water content in 2-butanone at which Form I is more stable than Form III (Form I/Form III boundary)” value ([1]; 20° C.) was “less than 5.7 wt % water”, the “water content in 2-butanone at which Form I is more stable than Form III (Form I/Form III boundary)” value ([1]; 30° C.) was “less than 6.6 wt % water” and the “water content of water-2-butanone mixtures in which Form I is thermodynamically stable” value ([1]; about 0° C.) was 2.5 to 5.0 wt. % water. For the same compound, the “water content of water-2-butanone mixtures in which Form I is thermodynamically stable” value ([1]; about 25° C.) was 3.5 to 6.0 wt. % water, the “water content of water-2-butanone mixtures in which Form I is thermodynamically stable” value ([1]; about 50° C.) was 5.0 to 8.5 wt. % water and the “water that must be present in EtOH to convert the excess solid to Form I at equilibrium” value [2] was 18-20%. For the same compound, the “conversion of Form I to Form II” value [3] was “will not convert to Form II”.
